Laboratory results reported in PubChem BioAssay (NCI).
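GI50 = concentration required for 50% inhibition of growth. TGI marks complete inhibition of growth.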

Columns and labels:
Test in all cases: inhibition of tumour cell growth, NCI panel, 384-well format
[1] = test system: SF-268 CNS
[2] = test system: NCI/ADR-RES ovarian
[3] = test system: NCI-H23 lung
[4] = test system: DU-145 prostate
[5] = test system: HCT-15 colon
[6] = test system: T-47D breast
[7] = test system: MDA-MB-468 breast
[8] = test system: SK-MEL-28 melanoma
[9] = test system: COLO 205 colon
[10] = test system: MDA-MB-435 melanoma
[11] = test system: HT29 colon
[12] = test system: PC-3 prostate
[13] = test system: 786-0 renal
[14] = test system: A549 NSCLC
[15] = test system: NCI-H226 lung
[16] = test system: SK-MEL-2 melanoma
[17] = test system: U251 glioblastoma
[18] = test system: SN12C renal
[19] = test system: SK-MEL-5 melanoma
[20] = test system: NCI-H322M lung
[21] = test system: EKVX NSCLC
[22] = test system: IGROV1 ovarian
[23] = test system: UACC-62 melanoma
[24] = test system: NCI-H522 lung
[25] = test system: SF-295 CNS
[26] = test system: HOP-92 NSCLC
[27] = test system: SF-539 CNS
[28] = test system: OVCAR-5 ovarian
[29] = test system: SK-OV-3 ovarian
[30] = test system: HL-60(TB) leukemia
[31] = test system: ACHN renal
[32] = test system: NCI-H460 NSCLC
[33] = test system: HS 578T breast
[34] = test system: SNB-75 CNS
[35] = test system: BT-549 breast
[36] = test system: MDA-MB-231 breast
[37] = test system: M14 melanoma
[38] = test system: MOLT-4 leukemia
[39] = test system: RXF 393 renal
[40] = test system: SR leukemia
[41] = test system: RPMI-8226 leukemia
[42] = test system: MCF7 breast
[43] = test system: OVCAR-4 ovarian
[44] = test system: SW-620 colon
[45] = test system: SNB-19 CNS
[46] = test system: OVCAR-8 ovarian
[47] = test system: TK-10 renal
[48] = test system: KM12 colon
[49] = test system: MALME-3M melanoma
[50] = test system: CCRF-CEM leukemia
[51] = test system: CAKI-1 renal
[52] = test system: OVCAR-3 ovarian
[53] = test system: HOP-62 NSCLC
[54] = test system: UACC-257 melanoma

NC(=S)N/N=C/c1ncccc1N
GI50 [1]: 0.318 µM | TGI [1]: 0.789 µM | GI50 [2]: 1.44 µM | TGI [2]: 3.04 µM | GI50 [3]: 0.257 µM | TGI [3]: 0.518 µM | GI50 [4]: 0.584 µM | TGI [4]: 3.63 µM | GI50 [5]: 3.47 µM | TGI [5]: > 100 µM | GI50 [6]: 1.33 µM | TGI [6]: 7.19 µM | GI50 [7]: 1.41 µM | TGI [7]: 3.56 µM | GI50 [8]: 2.67 µM | TGI [8]: 41.6 µM | GI50 [9]: 0.879 µM | TGI [9]: 2.23 µM | GI50 [10]: 7.8 µM | TGI [10]: > 100 µM | GI50 [11]: 2.21 µM | TGI [11]: 43.4 µM | GI50 [12]: 10.6 µM | TGI [12]: 28.2 µM | GI50 [13]: 0.242 µM | TGI [13]: 0.54 µM | GI50 [14]: 1.45 µM | TGI [14]: > 100 µM | GI50 [15]: 1.7 µM | TGI [15]: 3.45 µM | GI50 [16]: 0.45 µM | TGI [16]: 0.772 µM | GI50 [17]: 0.314 µM | TGI [17]: 0.855 µM | GI50 [18]: 0.73 µM | TGI [18]: 3.14 µM | GI50 [19]: 0.53 µM | TGI [19]: 1.96 µM | GI50 [20]: 7.28 µM | TGI [20]: > 100 µM | GI50 [21]: 3.28 µM | TGI [21]: 18.3 µM | GI50 [22]: 0.816 µM | TGI [22]: 20.5 µM | GI50 [23]: 0.249 µM | TGI [23]: 0.581 µM | GI50 [24]: 0.561 µM | TGI [24]: 7.76 µM | GI50 [25]: 1.1 µM | TGI [25]: 3.86 µM | GI50 [26]: 0.47 µM | TGI [26]: 21.8 µM | GI50 [27]: 0.212 µM | TGI [27]: 0.451 µM | GI50 [28]: 2.69 µM | TGI [28]: 8.73 µM | GI50 [29]: 2.67 µM | TGI [29]: 7.61 µM | GI50 [30]: 0.233 µM | TGI [30]: 0.428 µM | GI50 [31]: 0.281 µM | TGI [31]: 0.585 µM | GI50 [32]: 0.413 µM | TGI [32]: 1.57 µM | GI50 [33]: 0.654 µM | TGI [33]: > 100 µM | GI50 [34]: 0.344 µM | TGI [34]: 2.9 µM | GI50 [35]: 0.675 µM | TGI [35]: 3.94 µM | GI50 [36]: 0.616 µM | TGI [36]: 11.9 µM | GI50 [37]: 0.586 µM | TGI [37]: 1.87 µM | GI50 [38]: 0.194 µM | TGI [38]: 0.342 µM | GI50 [39]: 2.08 µM | TGI [39]: 23.6 µM | GI50 [40]: 0.192 µM | TGI [40]: 0.337 µM | GI50 [41]: 0.203 µM | TGI [41]: 0.373 µM | GI50 [42]: 0.487 µM | TGI [42]: 10.8 µM | GI50 [43]: 4.39 µM | TGI [43]: 9.35 µM | GI50 [44]: 0.697 µM | TGI [44]: 21.4 µM | GI50 [45]: 0.709 µM | TGI [45]: 4.14 µM | GI50 [46]: 0.241 µM | TGI [46]: 0.499 µM | GI50 [47]: 8.17 µM | TGI [47]: > 100 µM | GI50 [48]: 3.52 µM | TGI [48]: 24.8 µM | GI50 [49]: 0.378 µM | TGI [49]: 0.933 µM | GI50 [50]: 0.291 µM | TGI [50]: 0.622 µM | GI50 [51]: 0.494 µM | TGI [51]: 15.8 µM | GI50 [52]: 0.532 µM | TGI [52]: 8.64 µM | GI50 [53]: 0.357 µM | TGI [53]: 1.41 µM | GI50 [54]: 3.17 µM | TGI [54]: 15 µM
